Experimental data from patent US10987359B2, “Oxadiazepinone derivatives and methods of treating hepatitis B infections” (priority 2016, dated 2021).
pEC50: −log10 of the molar value.

test system: HBV; assay: HBV replication inhibition assay (BDNA assay) in HepG2.2.15 cells; format: cell-based; conditions: HBV replication assay (BDNA assay), HepG2.2.15 cells; read-out: DNA EC50
Procedure, shortened: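 HepG2.2.15 cells with stably integrated HBV were treated with serially diluted compounds at 0.5% DMSO for 6 days, with medium and compound refreshed at day 3. Encapsidated HBV DNA from DNase-treated supernatant was quantified by branched DNA assay. EC50 came from % inhibition versus DMSO, fitted non-linearly.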

Row | Structure (SMILES) | pEC50
1 | C[C@@H]1Cc2nn3c(c2CN1C(=O)Nc1cc(Cl)c(F)cc1F)C(=O)N(C)OC(CN(C)C)C3 (stereo in doubt) [Compound 099_D2, (4R*,9R)—N-(5-chloro-2,4-difluorophenyl)-4-((dimethylamino)methyl)-2,9-dimethyl-1-oxo-1,4,5,8,9,11-hexahydropyrido[4′,3′:3,4]pyrazolo[5,1-d][1,2,5]oxadiazepine-10(2H)-carboxamide] | 6.30 to 7.00
2 | C[C@@H]1Cc2nn3c(c2CN1C(=O)Nc1cc(Br)c(F)cc1F)C(=O)N(C)OC(COCC(F)F)C3 (single isomer, unassigned) [Compound 108_D2, (4R*,9R)—N-(5-bromo-2,4-difluorophenyl)-4-((2,2-difluoroethoxy)methyl)-2,9-dimethyl-1-oxo-1,4,5,8,9,11-hexahydropyrido[4′,3′:3,4]pyrazolo[5,1-d][1,2,5]oxadiazepine-10(2H)-carboxamide] | 7.00 to 9.00

same assay, conditions: Hepatitis B virus, HepG2.2.15, HBV replication assay (BDNA assay), HepG2.2.15 cells; read-out: DNA EC50

Row | Structure (SMILES) | pEC50
3 | C[C@@H]1Cc2nn3c(c2CN1C(=O)Nc1ccc(F)c(C(F)(F)F)c1)C(=O)N(C)OC(CF)C3 (stereo in doubt) [Compound 085_E1, (4S*,9R)—N-(4-fluoro-3-(trifluoromethyl)phenyl)-4-(fluoromethyl)-2,9-dimethyl-1-oxo-1,4,5,8,9,11-hexahydropyrido[4′,3′:3,4]pyrazolo[5,1-d][1,2,5]oxadiazepine-10(2H)-carboxamide] | 7.00 to 9.00
4 | C[C@@H]1Cc2nn3c(c2CN1C(=O)Nc1ccc(F)c(Br)c1F)C(=O)N(C)OC(CO)C3 (single isomer, unassigned) [Compound 092_E1, (4S*,9R)—N-(3-bromo-2,4-difluorophenyl)-4-(hydroxymethyl)-2,9-dimethyl-1-oxo-1,4,5,8,9,11-hexahydropyrido[4′,3′:3,4]pyrazolo[5,1-d][1,2,5]oxadiazepine-10(2H)-carboxamide] | 7.00 to 9.00
5 | C[C@@H]1Cc2nn3c(c2CN1C(=O)Nc1ccc(F)c(Br)c1)C(=O)N(C)OCC3 [Compound 077, (R)—N-(3-bromo-4-fluorophenyl)-2,9-dimethyl-1-oxo-1,4,5,8,9,11-hexahydropyrido[4′,3′:3,4]pyrazolo[5,1-d][1,2,5]oxadiazepine-10(2H)-carboxamide] | 7.00 to 9.00
6 | CN1O[C@H](C[S@@+](C)[O-])Cn2nc3c(c2C1=O)CN(C(=O)Nc1ccc(F)c(Cl)c1)CC3 (stereo in doubt) [Compound 049_E2, (S*)—N-(3-chloro-4-fluorophenyl)-2-methyl-4-(((R*)-methylsulfinyl)methyl)-1-oxo-1,4,5,8,9,11-hexahydropyrido[4′,3′:3,4]pyrazolo[5,1-d][1,2,5]oxadiazepine-10(2H)-carboxamide] | 7.00 to 9.00
7 | CN1OC(C)(C)Cn2nc3c(c2C1=O)CN(C(=O)Nc1ccc(F)c(Cl)c1)CC3 [Compound 064, N-(3-chloro-4-fluoro-phenyl)-2,4,4-trimethyl-1-oxo-5,8,9,11-tetrahydro pyrido[2,3]pyrazolo[2,4-d][1,2,5]oxadiazepine-10-carboxamide] | 7.00 to 9.00
8 | CN1OC(CO)Cn2nc3c(c2C1=O)CC(C(=O)Nc1ccc(F)c(Cl)c1)CC3 (stereo not shown) [Compound 209, N-(3-chloro-4-fluoro-phenyl)-4-(hydroxymethyl)-2-methyl-1-oxo-4,5,8,9,10,11-hexahydro-[1,2,5]oxadiazepino[5,4-b]indazole-10-carboxamide] | 6.00 to 6.30
9 | CC(=O)NCC1Cn2nc3c(c2C(=O)N(C)O1)CN(C(=O)Nc1ccc(F)c(C(F)(F)F)c1)[C@H](C)C3 (single isomer, unassigned) [Compound 177_D1, (4S*,9R)-4-(acetamidomethyl)-N-(4-fluoro-3-(trifluoromethyl)phenyl)-2,9-dimethyl-1-oxo-1,4,5,8,9,11-hexahydropyrido[4′,3′:3,4]pyrazolo[5,1-d][1,2,5]oxadiazepine-10(2H)-carboxamide] | 7.00 to 9.00
10 | CN1OC(CNCC(F)F)Cn2nc3c(c2C1=O)CN(C(=O)Nc1ccc(F)c(C(F)(F)F)c1F)CC3 (single isomer, unassigned) [Compound 191_E1, (S*)—N-(2,4-difluoro-3-(trifluoromethyl)phenyl)-4-(((2,2-difluoroethyl)amino)methyl)-2-methyl-1-oxo-1,4,5,8,9,11-hexahydropyrido[4′,3′:3,4]pyrazolo[5,1-d][1,2,5]oxadiazepine-10(2H)-carboxamide] | 7.00 to 9.00
